Source: patent publication US8987249B2, “Substituted 2-Aza-bicyclo[2.2.1]heptane-3-carboxylic acid (benzyl-cyano-methyl)-amides inhibitors of Cathepsin C” (Boehringer Ingelheim International GmbH, priority 2013, dated 2015)

Target: recombinant human DPPI (Cathepsin C) (Homo sapiens (Human), UniProt P53634)
Assay: Inhibition of human DPPI (Cathepsin C)
Assay type: biochemical
Details: substrate Gly-Arg-AMC
Experimental: Inhibition of Human DPPI (Cathepsin C)
Bovine serum albumin (BSA; Prod. No. A3059) and Dithiothreitol (DTT; Prod. No D0632) were from Sigma. […] The DPP1 inhibitor Gly-Phe-DMK was purchased from MP Biomedicals (Prod.-No. 03DK00625). The recombinant human DPPI was purchased from Prozymex. All other materials were of highest grade commercially available.
The following buffers were used: MES buffer: 25 mM MES, 50 mM NaCl, 5 mM DTT, adjusted to pH 6.0, containing 0.1% BSA; TAGZyme Buffer: 20 mM NaH2PO4, 150 mM NaCl adjusted to pH 6.0 with HCl
Then, 5 μL of substrate in MES buffer (final concentration 50 μM) were added. The microtiter plates were then incubated at room temperature for 30 min. Then, the reaction was stopped by adding 10 μL of Gly-Phe-DMK in MES-buffer (final concentration 1 μM).
The analysis of the data was performed by calculating the percentage of fluorescence in the presence of test compound in comparison to the fluorescence of the vehicle control after subtracting the background fluorescence using the following formula: (RFU(sample)−RFU(background))*100/(RFU(control)−RFU(background))
Data from these calculations were used to generate IC50 values for inhibition of DPPI, respectively.

recombinant human DPPI (Cathepsin C), sequence (P53634 231-394): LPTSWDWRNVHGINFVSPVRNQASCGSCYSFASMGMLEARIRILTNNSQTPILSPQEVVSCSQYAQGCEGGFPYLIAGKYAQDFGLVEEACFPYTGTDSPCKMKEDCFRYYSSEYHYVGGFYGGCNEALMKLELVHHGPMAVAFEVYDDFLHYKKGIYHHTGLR
recombinant human DPPI (Cathepsin C), sequence (P53634 395-463): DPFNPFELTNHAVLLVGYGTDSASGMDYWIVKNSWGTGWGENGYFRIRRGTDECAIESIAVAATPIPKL
recombinant human DPPI (Cathepsin C), sequence (P53634 25-134): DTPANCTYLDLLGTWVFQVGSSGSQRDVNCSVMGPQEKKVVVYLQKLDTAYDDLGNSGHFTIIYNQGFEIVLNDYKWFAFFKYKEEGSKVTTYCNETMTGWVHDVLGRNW

SMILES | IC50 [nM]
N#C[C@H](Cc1ccc(-c2csc(C(=O)N3CCN(CC(F)(F)F)CC3)c2)cc1F)NC(=O)[C@H]1N[C@@H]2CC[C@H]1C2 [Example 232] | 2.2
CN1CCN(C(=O)c2cc(-c3ccc(C[C@@H](C#N)NC(=O)[C@H]4N[C@@H]5CC[C@H]4C5)c(F)c3)cs2)CC1 [Example 225] | 0.8
CN(C)C(=O)c1ccc(-c2ccc(C[C@@H](C#N)NC(=O)[C@H]3N[C@@H]4CC[C@H]3C4)c(F)c2)cc1 [Example 211] | 61.1
CCOC(=O)c1ccc(-c2ccc(C[C@@H](C#N)NC(=O)[C@H]3N[C@@H]4CC[C@H]3C4)c(F)c2)s1 [Example 179] | 7.5
N#C[C@H](Cc1ccc(-c2ccc(C(=O)N3CCCCC3)cc2)cc1F)NC(=O)[C@H]1N[C@@H]2CC[C@H]1C2 [Example 210] | 49.4
CC(=O)Nc1ccc(-c2ccc(C[C@@H](C#N)NC(=O)[C@H]3N[C@H]4C[C@@H]3[C@@H]3C[C@@H]34)c(F)c2)cc1 [Example 131] | 139
Cc1cnn(C)c1-c1ccc(C[C@@H](C#N)NC(=O)[C@H]2N[C@@H]3CC[C@H]2C3)c(F)c1 [Example 126] | 275
CN1CCN(c2ccc(F)c(C[C@@H](C#N)NC(=O)[C@H]3N[C@@H]4CC[C@H]3C4)c2)CC1 [Example 318] | 212
CS(=O)(=O)c1cc(-c2ccc(C[C@@H](C#N)NC(=O)[C@H]3N[C@H]4CC[C@@H]3C4)c(F)c2)ccc1C#N [Example 214] | 815
COC(=O)c1ccc(-c2ccc(C[C@@H](C#N)NC(=O)[C@H]3N[C@@H]4CC[C@H]3C4)c(F)c2)o1 [Example 175] | 6.3
CN1CC2CCN(c3ccc(C[C@@H](C#N)NC(=O)[C@H]4N[C@@H]5CC[C@H]4C5)c(F)c3)C2C1 (some centres unmarked) [Example 353] | 6.5
CN(C)C(=O)c1cnn(-c2ccc(C[C@@H](C#N)NC(=O)[C@H]3N[C@@H]4CC[C@H]3C4)c(F)c2)c1 [Example 286] | 38.9
N#CC(Cc1ccc2c(c1)CCc1ccccc1-2)NC(=O)[C@H]1N[C@@H]2CC[C@H]1C2 (some centres unmarked) [Example 209] | 45.8
N#CC(Cc1ccc2cn[nH]c2c1)NC(=O)[C@H]1N[C@@H]2CC[C@H]1C2 (some centres unmarked) [Example 127] | 860
N#C[C@H](Cc1ccc(-c2ccc(C(=O)N3CCOCC3)cc2)cc1F)NC(=O)[C@H]1N[C@@H]2CC[C@H]1C2 [Example 202] | 22.9
COc1ccc2[nH]c(=O)c3cc(CC(C#N)NC(=O)[C@H]4N[C@@H]5CC[C@H]4C5)ccc3c2c1 (some centres unmarked) [Example 312] | 11
C[S+]([O-])c1cc(=O)n(-c2ccc(C[C@@H](C#N)NC(=O)[C@H]3N[C@@H]4CC[C@H]3C4)c(F)c2)cc1F (some centres unmarked) [Example 265] | 62.7
N#C[C@H](Cc1ccc(-c2cnc(C3CC3)s2)cc1F)NC(=O)[C@H]1N[C@@H]2CC[C@H]1C2 [Example 173] | 5.5
N#C[C@H](Cc1ccc(N2CCC3CN(C4CCOC4)CC32)cc1F)NC(=O)[C@H]1N[C@@H]2CC[C@H]1C2 (some centres unmarked) [Example 354] | 6.8
N#C[C@H](Cc1ccc(-c2ccc3c(c2)CC(=O)N3C2CCNCC2)cc1F)NC(=O)[C@H]1N[C@@H]2CC[C@H]1C2 [Example 334] | 22
Cn1ncc2cc(-c3ccc(C[C@@H](C#N)NC(=O)[C@H]4N[C@H]5C[C@@H]4[C@@H]4C[C@@H]45)c(F)c3)ccc21 [Example 137] | 59.7
N#C[C@H](Cc1ccc(-c2cc[nH]c(=O)c2)cc1F)NC(=O)[C@H]1N[C@@H]2CC[C@H]1C2 [Example 257] | 39.9
Cc1cn(C)c(-c2ccc(C[C@@H](C#N)NC(=O)[C@H]3N[C@@H]4CC[C@H]3C4)c(F)c2)n1 [Example 208] | 29.8
N#C[C@H](Cc1ccc2c(c1F)CCC(N1CCOCC1)C2)NC(=O)[C@H]1N[C@@H]2CC[C@H]1C2 (some centres unmarked) [Example 351] | 82.8
N#Cc1cc2c(cc1C(F)(F)F)[nH]c(=O)c1cc(CC(C#N)NC(=O)[C@H]3N[C@@H]4CC[C@H]3C4)ccc12 (some centres unmarked) [Example 302] | 4.7
N#C[C@H](Cc1ccc(C2CCN(C3CCOC3)CC2)cc1F)NC(=O)[C@H]1N[C@@H]2CC[C@H]1C2 (some centres unmarked) [Example 337] | 28.2
